Experimental findings from PubChem BioAssay (NCI) are described below.

Some test systems named below: MDA-MB-435; MDA-N; KM20L2 colon; LXFL 529 NSCLC; DMS 114 small cell lung; DMS 273 small cell lung; XF 498 CNS; HOP-18 NSCLC.
Holding throughout (experiment): NCI tumour cell line growth inhibition, 48 h

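Values below derive from 48-hour exposures of cells grown in 96-well plates, with endpoints linearly interpolated between the two concentrations bracketing the appropriate inhibition level. The concentration for 50% growth inhibition is given as GI50. At the TGI there is no net growth.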 A value given as a limit tells only on which side of the number the result lay.

Turning to `O=C(OCc1ccc2c(Cl)cc(Cl)c(O)c2n1)N1CCN(C(=O)c2cc3cc(F)ccc3[nH]2)CC1`, in the test on MDA-MB-435, the GI50 is 0.358 µM and the TGI was found to be 2.18 µM.

For the molecule `NC(=S)N/N=C/c1cc(-c2cccc(N)c2)ccn1`, in the test on MDA-MB-435, the GI50 was 3.2 µM and the TGI was over 100 µM.

Take `Cn1c(=O)c2c(ncn2CC(=O)Nc2ccc(-c3ccccc3)nn2)n(C)c1=O`: in the test with MDA-MB-435, the GI50 is over 100 µM and the TGI is over 100 µM.

As to `O=C(O)C12CC3(C(=O)O)CC(C(=O)O)(CC(C(=O)O)(C1)C3=O)C2=O`, the TGI in the test with MDA-MB-435 and in the test with MDA-N was over 100 µM throughout.

Turning to `CCCCc1c2c(nc3c1CCC/C3=C\c1ccccc1)/C(=C/c1ccccc1)CCC2`, the TGI in the test on KM20L2 colon, in the test with LXFL 529 NSCLC, in the test on DMS 114 small cell lung, with DMS 273 small cell lung and with XF 498 CNS was over 100 µM each time.

Turning to `Nc1ccc2[nH]cc(CCC(=O)O)c2c1`, the TGI in the test with MDA-MB-435 and in the test on MDA-N was over 100 µM throughout.

Turning to `CC[C@@]1(O)C(=O)OCc2c1cc1n(c2=O)Cc2c-1nc1cc(F)c(C)c3c1c2[C@@H](N)CC3`, in the test on MDA-MB-435, the GI50 was 0.015 µM and the TGI turned out to be 1.48 µM.

As for `Nc1nc(N)nc(CCCc2nc(N)nc(N)n2)n1`, the TGI in the test with MDA-MB-435 and with MDA-N was over 100 µM in each case.

As for `Cc1ncc([N+](=O)[O-])n1CCNS(=O)(=O)CCCn1ncnc1[N+](=O)[O-]`, the TGI in the test with MDA-MB-435 and in the test with MDA-N was over 100 µM in each case.

Consider `CO/N=C(/C)c1cccc(Nc2cc(-c3ccccc3)nc3ccc(OC)cc23)c1`, for which, in the test with MDA-MB-435, the GI50 was 1.99 µM and the TGI was 6.12 µM.

In the case of `CC(C(=O)n1c2ccccc2c2ccccc21)N(c1ccccc1)c1ccccc1` (stereo unspecified), the TGI in the test with KM20L2 colon came to 33.1 µM; in the test on LXFL 529 NSCLC, 27.9 µM; in the test on DMS 114 small cell lung, 32.5 µM; in the test on DMS 273 small cell lung, 34.1 µM.

Turning to `O=c1oc2ccc(Br)cc2c(=O)n1-c1ccc(F)cc1F`, in the test with MDA-MB-435, the GI50 is 2.85 µM and the TGI worked out at 10.4 µM.

With `Cc1cccc(C)c1NC(=O)C(=O)CC(=O)c1cccc([N+](=O)[O-])c1`, the TGI in the test on KM20L2 colon, in the test with LXFL 529 NSCLC, in the test with DMS 273 small cell lung, in the test on XF 498 CNS and in the test on HOP-18 NSCLC was over 100 µM throughout.

Turning to `CN1CCN(c2ccc(Nc3ncc4cc(C#N)c(=O)n(C5CCCC5)c4n3)cc2)CC1`, in the test on MDA-MB-435, the GI50 is 3.1 µM and the TGI was over 100 µM.

With `O=C1CSC(c2ccc(-c3nc4ccccc4s3)cc2)=N1`, in the test on MDA-MB-435, the GI50 is 7.54 µM and the TGI worked out at 24.8 µM.

Take `c1ccc(CSc2nc3ccccc3nc2-c2cccs2)cc1`: the TGI in the test with LXFL 529 NSCLC, with DMS 114 small cell lung, in the test with DMS 273 small cell lung, with XF 498 CNS and with HOP-18 NSCLC was over 100 µM throughout.

Turning to `Cc1cc(C(C)(C)C)cc(Cc2cc(C(C)(C)C)cc(Cc3cc(C(C)(C)C)cc(C)c3O)c2O)c1O`, the TGI in the test on KM20L2 colon was 29.6 µM; with LXFL 529 NSCLC it was 20.5 µM; in the test on DMS 114 small cell lung, 12.1 µM; with DMS 273 small cell lung it was 22.8 µM; in the test with XF 498 CNS, 4.13 µM; with HOP-18 NSCLC it was 29 µM.

Molecule `CCC(=O)Nc1ccc(N=NN(C)C)cc1` returned a TGI in the test with MDA-MB-435 of over 100 µM.

On to `Clc1ccc(N=CNc2ccc(-c3nc4ccccc4o3)cc2)cc1`, for which, in the test with MDA-MB-435, the GI50 was 21.1 µM and the TGI was 49.8 µM.

For `CCCCCCCCCCCCOC1C(C(CC(=O)NCCN2CCCC2)NS(=O)(=O)c2cc(Cl)cc(Cl)c2)OC2OC(C)(C)OC21` (stereo unspecified), in the test with MDA-MB-435, the GI50 was 1.41 µM and the TGI turned out to be 3.03 µM.

On to `Cc1ccc(Nc2nnc(-c3ccc4c(c3)OCO4)o2)c(C)c1`, for which the TGI with MDA-MB-435 and in the test with MDA-N was over 100 µM each time.

On to `COc1ccc2c(Oc3ccc(NC(=O)c4c(C)n(CC(C)(C)O)n(-c5ccccc5)c4=O)nc3)ccnc2c1`, for which, in the test with MDA-MB-435, the GI50 is 6.57 µM and the TGI is over 66.5 µM.

As to `CC(=O)OCCOCNC(=S)N/N=C/c1ccc(Br)s1`, the TGI with KM20L2 colon, in the test on LXFL 529 NSCLC, with DMS 114 small cell lung, in the test on DMS 273 small cell lung, in the test with XF 498 CNS and in the test on HOP-18 NSCLC was over 100 µM each time.

With `O=C(NO)c1ccc(CN(c2cnccn2)c2cnccn2)cc1`, in the test on MDA-MB-435, the GI50 is 12.2 µM and the TGI came out at 27.7 µM.

`C=C1CC[C@@H](C(C)C)C[C@@H]2[C@H]([C@H](O)C[C@]2(C)O)[C@@]2(C)CC[C@@H]1O2`: in the test on MDA-MB-435, the GI50 was 16.4 µM and the TGI came out at 32.1 µM.

As for `O=C(N/N=C/c1c(Cl)cccc1Cl)c1ccc(C(F)(F)F)nc1Nc1cccc(C(F)(F)F)c1`, in the test with MDA-MB-435, the GI50 is 2.37 µM and the TGI is over 100 µM.

Regarding `C[C@]12CC[C@@H]3c4ccc(O)c([N+](=O)[O-])c4CC[C@H]3[C@@H]1CC[C@@H]2NS(=O)(=O)c1cccc(Br)c1`, in the test on MDA-MB-435, the GI50 was 1.53 µM and the TGI stood at 2.98 µM.

On to `O=c1nc(-c2ccccc2)cc(-c2ccccc2O)[nH]1`, for which the TGI in the test with KM20L2 colon, in the test with LXFL 529 NSCLC, in the test on DMS 114 small cell lung, with DMS 273 small cell lung, in the test with XF 498 CNS and with HOP-18 NSCLC was over 100 µM each time.

Take `CC(C)C1=C2CCC3(C)C(CCC4C5C6OCC5(CCC6(C)C)CCC43C)C2(C)CC1` (stereo unspecified): the TGI in the test on MDA-MB-435 came out at 36.6 µM; in the test on MDA-N it was 30.2 µM.

With `O=[N+]([O-])c1ccc(CSCc2ccc(Cl)cc2)cc1`, the TGI in the test with MDA-MB-435 and in the test with MDA-N was over 100 µM each time.

On to `O=C(Nc1ccc(Cl)c(Cl)c1)Nc1ccccc1O`, for which, in the test on MDA-MB-435, the GI50 was 3.96 µM and the TGI amounted to 15.3 µM.

`CC1C(=O)OC2CC[N+]3([O-])CC=C(COC(=O)C(C)(O)C1(C)O)C23` (stereo unspecified): the TGI with MDA-MB-435 and in the test on MDA-N was over 100 µM in each case.
